Assay results reported in US20090186762A1, “METHOD FOR IMPROVING THE TOLERANCE OF PLANTS TO CHILLING TEMPERATURES AND/OR FROST” (BASF SE, priority 2006, published 2009).

Assays:
Format in all cases: in vivo
[1] = system: Corn seeds (Zea mays; variety Pioneer herbicide resistant 33P71); assay: Cold stress on corn seedlings after seed treatment; conditions: second exposure to cold stress (−5° C., 2 hours, code 13)
Experimental: Corn seeds (Zea mays; variety Pioneer herbicide resistant 33P71) were treated using either:
T1: Water (untreated) T2: Pyraclostrobin (5 g active ingredient 100 kg seeds) T3. Azoxystrobin (1 g active ingredient/100 kg seeds)
Subsequently, the treated seeds were planted in plastic pots (6 cm×6 cm×7 cm) filled with sand (metro mix). Seeds were incubated in a growth chamber (Conviron) at 25° C. and 60% humidity under a dark/light cycle of 16/8 h for 5 days (seedlings were at code 10). At this point, seedlings were exposed to a temperature of −5° C. for 3 hours. Following cold stress, the viable seedlings were kept growing until they had reached code 13. At this stage, they were submitted to additional 2 hours of cold stress at −5° C. Finally, the number of damaged seedlings (%) for each seed treatment was recorded.

[2] = system: Arabidopsis thaliana plants; assay: Cold/freezing stress on Arabidopsis thaliana plants, visual assessment of % leaf damage; conditions: for reduction of cold stress symptoms: Arabidopsis plants under different stress conditions
Experimental: Arabidopsis thaliana plants were grown in pots (8 cm diameter) under controlled environmental conditions at 21° C. during the day and at 19° C. during the night, under a light regiment of 9 h light and 15 h dark per day.
Chemical treatment was done 18 days after sowing. Each pot was treated with 500 μl of spray solution according to the treatment schedule below with a commercial pump spray applicator.
2) Orysastrobin (250 ppm) 3) Orysastrobin (500 ppm) 4) Pyraclostrobin (500 ppm)
After chemical treatment, the pots have been transferred to the same growth conditions for three days. Then the pots were transferred to three different environmental conditions to exert cold stress:
Control plants (A) were kept under the same conditions as described above.
Stressed plants (B) were transferred for 2 days to 6° C. under a 9-15 h day-night cycle. This cold treatment allows Arabidopsis plants to acclimate to a certain extent to the following freezing stress (−4° C., 24 h in the dark) (Wanner et al., 1999, Cold-induced freezing tolerance in Arabidopsis, Plant Physiology 120, 391-399).
Stressed plants (C) were not cold-hardened and kept for another 2 days under control environment before being transferred for one day to −4° C. without light.
After these treatments, all pots were returned to standard growth conditions (controlled environmental conditions) as described above.
3 days and 9 days after chemical treatment (3 days after recovery from freezing treatment) the trial was evaluated by visual assessment, scoring the symptoms in % leaf damage.

[3] = system: Adult Citrus trees (Citrus sinensis); assay: Field freeze protection of adult Citrus trees by leaf application; conditions: three 1600 g/ha leaf applications at 14 to 18 day intervals
Experimental: Adult Citrus trees (Citrus sinensis) were treated by three 1600 g/ha pyraclostrobin leaf applications at 14 to 18 day intervals. Applications began shortly before the initial freeze in winter seasons. Temperatures dropped to −6° C. in three separate cold weather events. With extreme low temperatures, nothing is expected to reduce damage.

[4] = stress condition A (control plants, 21° C./19° C., no cold stress), 500 ppm spray, 9 days after chemical treatment
[5] = stress condition B (2 days 6° C. hardening, then −4° C. 24 h dark), 500 ppm spray, 3 days after recovery from freezing
[6] = stress condition C (not cold-hardened, −4° C. 24 h dark), 500 ppm spray, 3 days after recovery from freezing

Row | Compound | number of damaged seedlings (%) ([1]; seed treatment 1 g active ingredient/100 kg seeds) | reduction of cold stress symptoms [2] | leaf damage ([2]; stress condition A (control plants, 21° C./19° C., no cold stress), 250 ppm spray, 9 days after chemical treatment) [%] | leaf damage [2, 4] [%] | leaf damage ([2]; stress condition B (2 days 6° C. hardening, then −4° C. 24 h dark), 250 ppm spray, 3 days after recovery from freezing) [%] | leaf damage [2, 5] [%] | leaf damage ([2]; stress condition C (not cold-hardened, −4° C. 24 h dark), 250 ppm spray, 3 days after recovery from freezing) [%] | leaf damage [2, 6] [%] | chilling protection in citrus ([3]; temperatures dropped to −6° C.) | leaf burn symptoms and fruit drop versus untreated control plants ([3]; temperatures dropped to −6° C. in three cold weather events) | number of damaged seedlings (%) ([1]; seed treatment 5 g active ingredient 100 kg seeds)
1 | CO/C=C(/C(=O)OC)c1ccccc1Oc1cc(Oc2ccccc2C#N)ncn1 [Azoxystrobin, azoxystrobin] | 38 |  |  |  |  |  |  |  |  |  | 
2 | CNC(=O)/C(=N/OC)c1ccccc1CO/N=C(C)/C(=N/OC)C(/C)=N/OC [Orysastrobin, orysastrobin] |  | highly effective to reduce cold stress symptoms | 0 | 0 | 0 | 0 | 5 | 10 |  |  | 
3 | pyraclostrobin |  | highly effective to reduce cold stress symptoms |  | 0 |  | 0 |  | 30 | strong chilling protection | less leaf burn symptoms and fruit drop | 0
